Measurements published in paper PMC10700596 (Nature Communications, 2023).

Molecular target: T1, EP4R (Homo sapiens, UniProt P35408)
T1 construct: Tango fusion cassette (only 'tango' is printed); expressed in transfected cells; host or cells: HTLA cells (tTA-dependent luciferase reporter, β-arrestin2-TEV fusion)
Assay: PRESTO-Tango β-arrestin2 recruitment assay
Format: cell-based
Details: for Ki: PRESTO-Tango Ki* (nM)

[1] = PRESTO-Tango IC50 (nM), antagonist mode, EC80 of PGE2
[2] = PRESTO-Tango -logIC50, antagonist mode, EC80 of PGE2
[3] = calculated using the Cheng Prusoff equation

T1 sequence (P35408 whole entry, the tested form may be a part): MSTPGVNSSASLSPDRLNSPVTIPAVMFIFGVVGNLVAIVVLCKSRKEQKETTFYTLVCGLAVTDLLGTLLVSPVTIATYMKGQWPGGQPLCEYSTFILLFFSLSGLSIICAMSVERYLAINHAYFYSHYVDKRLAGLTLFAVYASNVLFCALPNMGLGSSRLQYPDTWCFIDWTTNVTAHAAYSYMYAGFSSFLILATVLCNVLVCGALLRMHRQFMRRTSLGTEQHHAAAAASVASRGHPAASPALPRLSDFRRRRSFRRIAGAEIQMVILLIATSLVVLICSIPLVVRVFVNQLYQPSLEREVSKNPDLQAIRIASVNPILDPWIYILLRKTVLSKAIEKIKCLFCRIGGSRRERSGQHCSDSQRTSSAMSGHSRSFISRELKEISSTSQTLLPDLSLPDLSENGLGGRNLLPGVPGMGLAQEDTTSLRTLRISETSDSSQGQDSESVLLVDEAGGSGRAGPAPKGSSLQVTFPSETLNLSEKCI

| Structure (SMILES) | IC50 [1] [nM] | IC50 [2] [nM] | Ki [3] [nM] | other results |
| --- | --- | --- | --- | --- |
| CN(c1ncnc2[nH]c3ccccc3c12)C1CC2(CCC(C(=O)O)CC2)C1 (stereo not drawn) [Compound 76, CN(C1CC2(C1)CCC(CC2)C(=O)O)C=3N=CN=C4NC=5C=CC=CC5C34] | – | – | – | IC50 (PRESTO-Tango IC50 (nM)): 1170 nM; Ki: 234 nM |
| Cc1cc(C(=O)NC2CCCC(C(=O)O)CC2)c(C)n1-c1ccccc1 (stereo not drawn) [Compound 78, CC1=CC(C(=O)NC2CCCC(CC2)C(=O)O)=C(C)N1C=3C=CC=CC3] | 7080 | – | – | Ki: 1420 nM |
| O=C(O)C1CCC2(CC1)CC(Nc1ncnc3c1oc1ccccc13)C2 (stereo not drawn) [Compound 84, OC(=O)C1CCC2(CC(C2)NC=3N=CN=C4C=5C=CC=CC5OC34)CC1] | 5730 | – | – | Ki: 1150 nM |
| O=C(O)C1CCC2(CC1)CC(Nc1ncnc3sc(-c4ccccc4)cc13)C2 (stereo not drawn) [Compound 85, OC(=O)C1CCC2(CC(C2)NC=3N=CN=C4SC(=CC34)C=5C=CC=CC5)CC1] | > 10000 | 776000 | – | – |
| Cc1csc2ncnc(NC3CC4(CCC(C(=O)O)CC4)C3)c12 (stereo not drawn) [Compound 86, CC1=CSC=2N=CN=C(NC3CC4(C3)CCC(CC4)C(=O)O)C12] | 7960 | – | 1590 | – |
| CC(C)c1ccc2ncnc(NC3CC4(CCC(C(=O)O)CC4)C3)c2c1 (stereo not drawn) [Compound 87, CC(C)C=1C=CC=2N=CN=C(NC3CC4(C3)CCC(CC4)C(=O)O)C2C1] | > 10000 | 19500 | – | – |
| Cc1cc2c(NC3CC4(CCC(C(=O)O)CC4)C3)ncnc2s1 (stereo not drawn) [Compound 88, CC1=CC=2C(NC3CC4(C3)CCC(CC4)C(=O)O)=NC=NC2S1] | – | – | – | IC50 (PRESTO-Tango -logIC50): 708000 nM; IC50 (PRESTO-Tango IC50 (nM)): > 10000 nM |
| O=C(O)C1CCC2(CC1)CC(Nc1nc(C(F)(F)F)nc3ccccc13)C2 (stereo not drawn) [Compound 90, OC(=O)C1CCC2(CC(C2)NC=3N=C(N=C4C=CC=CC34)C(F)(F)F)CC1] | 3870 | – | 774 | – |
| O=C(O)C1CCC2(CC1)CC(Nc1ncnc3sc4c(c13)CCC4)C2 (stereo not drawn) [Compound 91, OC(=O)C1CCC2(CC(C2)NC=3N=CN=C4SC=5CCCC5C34)CC1] | 4030 | – | – | Ki: 807 nM |
| CC1CCc2c(sc3ncnc(NC4CC5(CCC(C(=O)O)CC5)C4)c23)C1 (stereo not drawn) [Compound 92, CC1CCC2=C(C1)SC=3N=CN=C(NC4CC5(C4)CCC(CC5)C(=O)O)C23] | 806 | – | 161 | – |
| Cc1nc(NC2CC3(CCC(C(=O)O)CC3)C2)c2cc(-c3ccccc3)sc2n1 (stereo not drawn) [Compound 93, CC=1N=C(NC2CC3(C2)CCC(CC3)C(=O)O)C=4C=C(SC4N1)C=5C=CC=CC5] | 7350 | – | 1470 | – |
| Cc1nc2ncnn2c(NC2CC3(CCC(C(=O)O)CC3)C2)c1C (stereo not drawn) [Compound 94, CC1=NC2=NC=NN2C(NC3CC4(C3)CCC(CC4)C(=O)O)=C1C] | – | – | – | IC50 (PRESTO-Tango -logIC50): 12000 nM; IC50 (PRESTO-Tango IC50 (nM)): > 10000 nM |
| O=C(NC1CCCC(C(=O)O)CC1)c1nn(-c2ccccc2)c2c1CCC2 (stereo not drawn) [Compound 98, OC(=O)C1CCCC(CC1)NC(=O)C2=NN(C=3CCCC23)C=4C=CC=CC4] | 2060 | – | 411 | – |
| O=C(O)C[C@@H]1CC[C@H](NC(=O)c2csc(C3CCCCC3)c2)C1 [Compound 100, OC(=O)C[C@@H]1CC[C@@H](C1)NC(=O)C2=CSC(=C2)C3CCCCC3] | 1880 | 1820 | – | Ki: 376 nM |
| O=C(NC1CCCC(C(=O)O)CC1)c1csc(C2CCCCC2)n1 (stereo not drawn) [Compound 106, OC(=O)C1CCCC(CC1)NC(=O)C2=CSC(=N2)C3CCCCC3] | > 10000 | 23400 | – | – |
| O=C(NC1CCCC(C(=O)O)CC1)c1csc(Cc2ccccc2)c1 (stereo not drawn) [Compound 107, OC(=O)C1CCCC(CC1)NC(=O)C2=CSC(CC=3C=CC=CC3)=C2] | > 10000 | 22900 | – | – |

| Structure (SMILES) | IC50 [1] [nM] | IC50 [2] [nM] | Ki [3] [nM] | other results |
| --- | --- | --- | --- | --- |
| Cc1sc(C(=O)NC2CCCC(C(=O)O)CC2)cc1-c1ccc(F)cc1 (stereo not drawn) [Compound 108, CC=1SC(=CC1C=2C=CC(F)=CC2)C(=O)NC3CCCC(CC3)C(=O)O] | > 10000 | 501000 | – | – |
| O=C(NC1CC2(CCC(C(=O)O)CC2)C1)c1csc(C2CCCCC2)c1 (stereo not drawn) [Compound 109, OC(=O)C1CCC2(CC(C2)NC(=O)C3=CSC(=C3)C4CCCCC4)CC1] | > 10000 | 10200 | – | – |
| Cc1cc(C(=O)N[C@@H]2CC[C@@H](C(=O)O)CCC2(F)F)c(C)n1-c1ccccc1F [Compound 113, CC1=CC(C(=O)N[C@@H]2CC[C@H](CCC2(F)F)C(=O)O)=C(C)N1C=3C=CC=CC3F] | – | – | – | IC50 (PRESTO-Tango -logIC50): 11000 nM; IC50 (PRESTO-Tango IC50 (nM)): > 10000 nM |
| O=C(NC1CCCC(C(=O)O)CC1)c1nn(-c2ccc(F)cc2)c2c1CCC2 (stereo not drawn) [Compound 116, OC(=O)C1CCCC(CC1)NC(=O)C2=NN(C=3CCCC23)C=4C=CC(F)=CC4] | > 10000 | 17400 | – | – |
| COc1cccc(-n2c(C)cc(C(=O)NC3CCCC(C(=O)O)CC3)c2C)c1 (stereo not drawn) [Compound 117, COC=1C=CC=C(C1)N2C(C)=CC(C(=O)NC3CCCC(CC3)C(=O)O)=C2C] | > 10000 | 22900 | – | – |
| O=C(N[C@@H]1CC[C@@H](C(=O)O)CCC1(F)F)c1nn(-c2ccccc2F)c2c1CCC2 [Compound 118, OC(=O)[C@@H]1CC[C@@H](NC(=O)C2=NN(C=3CCCC23)C=4C=CC=CC4F)C(F)(F)CC1] | 3790 | – | – | Ki: 757 nM |
| Cc1cc(C(=O)NC2CCCC(C(=O)O)CC2)c(C)n1-c1ccc(F)cc1 (stereo not drawn) [Compound 119, CC1=CC(C(=O)NC2CCCC(CC2)C(=O)O)=C(C)N1C=3C=CC(F)=CC3] | > 10000 | 25900 | – | – |
| O=C(N[C@@H]1CC[C@@H](C(=O)O)CCC1(F)F)c1nn(-c2cccc(F)c2)c2c1CCC2 [Compound 121, OC(=O)[C@@H]1CC[C@@H](NC(=O)C2=NN(C=3CCCC23)C=4C=CC=C(F)C4)C(F)(F)CC1] | 1010 | 1000 | 202 | – |
| Cc1cc(C(=O)NC2CCCC(C(=O)O)CC2)c(C)n1-c1ccc(C(C)C)cc1 (stereo not drawn) [Compound 122, CC(C)C=1C=CC(=CC1)N2C(C)=CC(C(=O)NC3CCCC(CC3)C(=O)O)=C2C] | 1150 | – | 229 | – |
| O=C(NC1CCCC(C(=O)O)CC1)c1nn(-c2cccc(F)c2)c2c1CCC2 (stereo not drawn) [Compound 123, OC(=O)C1CCCC(CC1)NC(=O)C2=NN(C=3CCCC23)C=4C=CC=C(F)C4] | – | – | 293 | IC50 (PRESTO-Tango IC50 (nM)): 1470 nM |
| COc1ccc(-n2c(C)cc(C(=O)NC3CCCC(C(=O)O)CC3)c2C)cc1 (stereo not drawn) [Compound 124, COC=1C=CC(=CC1)N2C(C)=CC(C(=O)NC3CCCC(CC3)C(=O)O)=C2C] | > 10000 | 53700 | – | – |
| O=C(N[C@@H]1CC[C@@H](C(=O)O)CCC1(F)F)c1nn(-c2ccccc2)c2c1CCC2 [Compound 125, OC(=O)[C@@H]1CC[C@@H](NC(=O)C2=NN(C=3CCCC23)C=4C=CC=CC4)C(F)(F)CC1] | 1640 | – | 328 | – |
| Cc1cc(C(=O)NC2CCCC(C(=O)O)CC2)c(C)n1-c1cccc(F)c1 (stereo not drawn) [Compound 126, CC1=CC(C(=O)NC2CCCC(CC2)C(=O)O)=C(C)N1C=3C=CC=C(F)C3] | – | – | – | PRESTO-Tango -logIC50: unstable; IC50 (PRESTO-Tango IC50 (nM)): > 10000 nM |
| O=C(N[C@@H]1CC[C@@H](C(=O)O)CCC1(F)F)c1nn(-c2ccc(F)cc2)c2c1CCC2 [Compound 127, OC(=O)[C@@H]1CC[C@@H](NC(=O)C2=NN(C=3CCCC23)C=4C=CC(F)=CC4)C(F)(F)CC1] | 2170 | – | 434 | – |
| Cc1cc(C(=O)N[C@@H]2CC[C@@H](C(=O)O)CCC2(F)F)c(C)n1-c1cccc(F)c1 [Compound 128, CC1=CC(C(=O)N[C@@H]2CC[C@H](CCC2(F)F)C(=O)O)=C(C)N1C=3C=CC=C(F)C3] | > 10000 | 18200 | – | – |
| Cc1cc(C(=O)NC2CCCC(C(=O)O)CC2)c(C)n1-c1ccccc1F (stereo not drawn) [Compound 129, CC1=CC(C(=O)NC2CCCC(CC2)C(=O)O)=C(C)N1C=3C=CC=CC3F] | > 10000 | 479000 | – | – |
